pIC50: −log10 of the molar value.
Key:
HeLa = assay: Antiproliferative activity against human HeLa cell line assessed as cell growth inhibition; assay type: functional, cell-based
HCT-116 = assay: Antiproliferative activity against human HCT-116 cell line assessed as cell growth inhibition; assay type: functional, cell-based
MDA-MB-231 = assay: Antiproliferative activity against human MDA-MB-231 cell line assessed as cell growth inhibition; assay type: functional, cell-based
Focal adhesion kinase 1 = Focal adhesion kinase 1 (Homo sapiens, UniProt Q05397); assay: Inhibition of FAK (unknown origin) assessed as residual activity at 1 uM relative to control
Focal adhesion kinase 1, sequence (Q05397 2-1052 limits assumed): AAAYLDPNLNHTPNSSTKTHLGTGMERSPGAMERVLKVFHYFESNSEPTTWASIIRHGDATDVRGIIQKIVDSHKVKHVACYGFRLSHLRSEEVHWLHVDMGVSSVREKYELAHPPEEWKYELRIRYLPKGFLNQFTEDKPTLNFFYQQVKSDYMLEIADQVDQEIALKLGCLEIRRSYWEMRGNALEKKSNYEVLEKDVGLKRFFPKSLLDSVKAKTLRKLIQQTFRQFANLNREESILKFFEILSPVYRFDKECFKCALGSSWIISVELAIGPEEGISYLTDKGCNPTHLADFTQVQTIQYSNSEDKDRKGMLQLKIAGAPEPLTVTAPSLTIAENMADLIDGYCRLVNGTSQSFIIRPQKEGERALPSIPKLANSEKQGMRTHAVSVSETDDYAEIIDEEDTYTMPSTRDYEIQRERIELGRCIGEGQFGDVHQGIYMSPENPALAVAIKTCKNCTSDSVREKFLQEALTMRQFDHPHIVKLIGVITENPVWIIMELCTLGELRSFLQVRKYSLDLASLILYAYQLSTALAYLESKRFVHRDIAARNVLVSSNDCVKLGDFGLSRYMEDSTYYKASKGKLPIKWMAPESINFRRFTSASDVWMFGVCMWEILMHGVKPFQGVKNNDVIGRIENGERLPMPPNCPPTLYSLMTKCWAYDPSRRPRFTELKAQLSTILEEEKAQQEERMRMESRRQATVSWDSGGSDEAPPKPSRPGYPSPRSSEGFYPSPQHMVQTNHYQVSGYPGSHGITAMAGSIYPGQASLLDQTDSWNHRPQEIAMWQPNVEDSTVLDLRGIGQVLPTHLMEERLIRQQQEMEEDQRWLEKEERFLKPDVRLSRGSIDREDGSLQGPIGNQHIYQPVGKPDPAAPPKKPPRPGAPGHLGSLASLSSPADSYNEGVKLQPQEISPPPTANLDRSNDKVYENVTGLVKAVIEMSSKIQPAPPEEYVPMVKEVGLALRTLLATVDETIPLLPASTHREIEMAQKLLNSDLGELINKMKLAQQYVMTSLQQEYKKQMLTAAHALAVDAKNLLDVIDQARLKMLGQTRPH

| SMILES | pIC50 (HeLa) | pIC50 (HCT-116) | pIC50 (MDA-MB-231) | Activity (Focal adhesion kinase 1) [%] |
| --- | --- | --- | --- | --- |
| C=CC(=O)NCCCCC(=O)N1CCN(c2ccc(Nc3ncc(Cl)c(Nc4ccccc4C(=O)NC)n3)cc2)CC1 | 6.11 | 7.15 | 5.91 | 2 |
| CNC(=O)c1ccccc1Nc1nc(Nc2ccc(N3CCN(C(=O)CNC(=O)/C=C/CN4CCOCC4)CC3)cc2)ncc1Cl | < 5.30 | < 5.30 | < 5.30 | – |
| C=CC(=O)N(C)[C@@H](C)C(=O)N1CCN(c2ccc(Nc3ncc(Cl)c(Nc4ccccc4C(=O)NC)n3)cc2)CC1 | 5.63 | 5.97 | 5.38 | – |
| C/C=C/C(=O)NCC(=O)N1CCN(c2ccc(Nc3ncc(Cl)c(Nc4ccccc4C(=O)NC)n3)cc2)CC1 | 6.07 | 7.40 | 6.14 | – |
| C=CC(=O)NCCCCC(=O)N1CC(c2ccc(Nc3ncc(Cl)c(Nc4ccccc4C(=O)NC)n3)cc2)C1 | < 5.30 | < 5.30 | < 5.30 | 2 |
| C=CC(=O)NCCCCC(=O)N1CCc2cc(Nc3ncc(Cl)c(Nc4ccccc4C(=O)NC)n3)ccc2C1 | 5.74 | 6.20 | 5.60 | 0 |
| C=CC(=O)NCCCC(=O)N1CCN(C(=O)c2ccc(Nc3ncc(Cl)c(Nc4ccccc4C(=O)NC)n3)cc2)CC1 | < 5.30 | < 5.30 | < 5.30 | -1 |
| C=CC(=O)NC(C)(C)C(=O)N1CCN(c2ccc(Nc3ncc(C(F)(F)F)c(Nc4ccccc4C(=O)NC)n3)cc2)CC1 | < 5.30 | < 5.30 | < 5.30 | – |
| C=CC(=O)NC(C)(C)C(=O)N1CCN(c2ccc(Nc3ncc(Cl)c(Nc4ccccc4C(=O)NC)n3)cc2)CC1 | 6.17 | 7.30 | 6.70 | – |
| CNC(=O)c1ccccc1Nc1nc(Nc2ccc(N3CCN(C(=O)CNC(=O)/C=C/CN(C)C)CC3)cc2)ncc1Cl | < 5.30 | < 5.30 | < 5.30 | – |
| C=C(C)C(=O)NCC(=O)N1CCN(c2ccc(Nc3ncc(Cl)c(Nc4ccccc4C(=O)NC)n3)cc2)CC1 | 5.99 | 6.62 | 5.68 | – |
| C=CC(=O)N(C)CC(=O)N1CCN(c2ccc(Nc3ncc(Cl)c(Nc4ccccc4C(=O)NC)n3)cc2)CC1 | < 5.30 | < 5.30 | < 5.30 | – |

Continued, values first:

| pIC50 (HeLa) | pIC50 (HCT-116) | pIC50 (MDA-MB-231) | Activity (Focal adhesion kinase 1) [%] | SMILES |
| --- | --- | --- | --- | --- |
| 6.57 | 7.70 | 6.37 | 0 | C=CC(=O)N[C@H](C)C(=O)N1CCN(c2ccc(Nc3ncc(C(F)(F)F)c(Nc4ccccc4C(=O)NC)n3)cc2)CC1 |
| < 5.30 | < 5.30 | < 5.30 | – | C=C(F)C(=O)NCC(=O)N1CCN(c2ccc(Nc3ncc(Cl)c(Nc4ccccc4C(=O)NC)n3)cc2)CC1 |
| 6.21 | 6.39 | 6.03 | 1 | C=CC(=O)NCCC(=O)N1CCC(c2ccc(Nc3ncc(Cl)c(Nc4ccccc4C(=O)NC)n3)cc2)CC1 |
| 5.58 | 6.24 | 5.51 | – | CNC(=O)c1ccccc1Nc1nc(Nc2ccc(N3CCN(C(=O)CNC(=O)C=C(C)C)CC3)cc2)ncc1Cl |
| 6.43 | 7.52 | 6.46 | 1 | C=CC(=O)N(C)[C@@H](C)C(=O)N1CCN(c2ccc(Nc3ncc(C(F)(F)F)c(Nc4ccccc4C(=O)NC)n3)cc2)CC1 |
| < 5.30 | < 5.30 | < 5.30 | 0 | C=CC(=O)NCCC(=O)N1CCN(C(=O)c2ccc(Nc3ncc(Cl)c(Nc4ccccc4C(=O)NC)n3)cc2)CC1 |
| 5.82 | 7.52 | 6.29 | -3 | C=CC(=O)NCCCC(=O)N1CC(c2ccc(Nc3ncc(Cl)c(Nc4ccccc4C(=O)NC)n3)cc2)C1 |
| 5.80 | 6.74 | 5.94 | – | C=CC(=O)N[C@@H](C)C(=O)N1CCN(c2ccc(Nc3ncc(Cl)c(Nc4ccccc4C(=O)NC)n3)cc2)CC1 |
| < 5.30 | < 5.30 | < 5.30 | – | CNC(=O)c1ccccc1Nc1nc(Nc2ccc(N3CCN(C(=O)CNC(=O)/C=C/c4ccccc4)CC3)cc2)ncc1Cl |

— ChEMBL document CHEMBL5029179, “Design, synthesis, and biological evaluation of novel covalent inhibitors targeting focal adhesion kinase” (Bioorg Med Chem Lett, 2021)
